# System: control human primary myoblasts
# Test: Expression microarray of primary myoblasts transduced with lentivirus carrying DUX4-fl, DUX4-s or GFP
# Procedure: Primary human myoblasts were collected and cultured as previously described (Snider et al., 2010). Primary myoblasts were maintained at or below 70% confluency for proliferation. For differentiation, cells were allowed to reach 95-100% confluency in growth medium. Once confluency was reached, the cells were changed to differentiation medium (F10 media supplemented with 1% horse serum, 10 μg/mL insulin, and 10 μg/mL transferrin, penicillin/streptomycin) and maintained for 4 days. Human RD cells were grown in DMEM in 10% bovine calf serum (Hyclone) and penicillin/streptomycin. The primary myoblasts were transduced with lentivirus carrying DUX-fl, DUX4- or GFP (MOI=15).
# Expression microarrays were performed on the transduced cells at 24 hours after transduction as follows. […] Samples were analyzed by Illumina Human Whole Genome microarrays. Probe intensities were corrected, normalized, and summarized by the Lumi package of Bioconductor (Du et al., 2008). Differentially expressed genes were identified by the LIMMA package of Bioconductor (Wettenhall and Smyth, 2004). Gene set enrichment analysis (GSEA) was performed using the Bioconductor GOstats package (Falcon and Gentleman, 2007).
substance,measurement,setting,value
"DUX4-fl: full-length DUX4 protein (SEQ ID NO:110), expressed from lentiviral or pCS2 vectors or in vitro translated",LOC728450 expression fc,Refseq XM_001131473.2,2.474
same,RFNG fc,Refseq XM_001132711.1,−1.116
same,LOC732416 expression fc,Refseq XM_001133386.1,2.329
same,THOC4 expression fc,Refseq XM_001134346.1,4.035
same,PRAMEF15 expression fc,Refseq XM_001713659.1,7
same,LOC100131392 expression fc,Refseq XM_001713681.1,6.976
same,LOC100132564 expression fc,Refseq XM_001713808.1,3.588
same,LOC391769 expression fc,Refseq XM_001713901.1,8.19
same,PRAMEF13 expression fc,Refseq XM_001713933.1,7.422
same,PRAMEF11 expression fc,Refseq XM_001714028.1,5.94
same,fc of LOC285296 (expression array),Refseq XM_001714301.1,−1.042
same,LOC100133588 expression fc,Refseq XM_001714755.1,2.2
same,CTGLF7 expression fc,Refseq XM_001714786.1,3.437
same,LOC100129630 expression fc,Refseq XM_001714940.1,1.871
same,LOC391763 expression fc,Refseq XM_001715080.1,1.963
same,LOC642446 expression fc,Refseq XM_001717781.1,3.101
same,LOC100133446 expression fc,Refseq XM_001717965.1,4.635
same,LOC100129165 fc,Refseq XM_001718314.1,−1.161
same,LOC643336 expression fc,Refseq XM_001718563.1,1.934
same,LOC100129053 expression fc,Refseq XM_001718702.1,2.724
same,LOC100130652 expression fc,Refseq XM_001719052.1,3.33
same,RFPL4A expression fc,Refseq XM_001719234.1,4.348
same,LOC728809 fc,Refseq XM_001719546.1,−1.14
same,LOC100134199 expression fc,Refseq XM_001719549.1,8.048
same,PNMA6B expression fc,Refseq XM_001721351.1,3.603
same,LOC100133984 expression fc,Refseq XM_001723079.1,6.204
same,LOC649330 expression fc,Refseq XM_001723218.1,3.101
same,LOC100128202 expression fc,Refseq XM_001723719.1,3.711
same,LOC100130311 expression fc,Refseq XM_001724111.1,2.912
same,LOC100131539 expression fc,Refseq XM_001724873.1,4.629
same,LOC100134006 expression fc,Refseq XM_001725030.1,7.087
same,LOC730167 expression fc,Refseq XM_001726158.1,3.656
same,LOC100129681 expression fc,"Refseq XM_001726834.1, cultured human skeletal muscle",−4.075
same,LOC651709 expression fc,Refseq XM_001732813.1,2.304
same,LOC727828 expression fc,Refseq XR_015137.1,3.054
same,LOC728060 fc,Refseq XR_015272.2,−1.095
same,LOC732393 expression fc,Refseq XR_015873.1,4.637
same,MGC40489 expression fc,Refseq XR_016048.1,2.542
same,LOC643263 expression fc,Refseq XR_016355.1,8.345
same,LOC441081 expression fc,Refseq XR_017029.1,3.764
same,LOC647366 expression fc,Refseq XR_018122.1,3.783
same,LOC440041 expression fc,Refseq XR_018122.2,3.895
same,LOC647827 expression fc,Refseq XR_018213.1,4.053
same,LOC399988 expression fc,Refseq XR_018287.2,1.966
same,LOC650215 fc,Refseq XR_018889.1,−1.139
same,fc of RBMS2P (expression array),Refseq XR_019556.2,−0.4507
same,LOC642148 expression fc,Refseq XR_019607.1,6.851
same,LOC650236 expression fc,Refseq XR_036872.1,2.915
same,LOC100134322 expression fc,Refseq XR_037416.1,2.488
same,LOC730974 expression fc,Refseq XR_037751.1,7.715
same,LOC643445 expression fc,Refseq XR_038080.1,8.25
same,LOC729516 expression fc,Refseq XR_038445.1,5.955
same,LOC340970 expression fc,Refseq XR_038494.1,8.316
same,LOC645381 expression fc,Refseq XR_038557.1,2.089
same,LOC728429 expression fc,Refseq XR_038921.1,2.178
same,LOC645638 fc,Refseq XR_040455.1,−1.128
same,LOC400464 expression fc,Refseq XR_041115.1,2.831
same,TRIM53 expression fc,Refseq XR_041244.1,4.778
same,LOC729009 expression fc,"Refseq XR_042330.1, cultured human skeletal muscle",−2.654
same,number of genes increased 8-fold or more,Table 1,164 genes
same,number of genes increased 16-fold or more,Table 1,107 genes
same,ABCC3 expression fc,cultured human skeletal muscle,−1.491
same,ADM expression fc,cultured human skeletal muscle,−1.619
same,AGTRAP expression fc,cultured human skeletal muscle,−1.467
same,AHNAK expression fc,cultured human skeletal muscle,−1.441
same,ANGPTL2 expression fc,cultured human skeletal muscle,−1.893
same,ANKFY1 expression fc,cultured human skeletal muscle,−1.396
same,APOL3 expression fc,cultured human skeletal muscle,−1.548
same,ARHGEF19 expression fc,cultured human skeletal muscle,−1.4
same,ARID3A expression fc,cultured human skeletal muscle,−1.573
same,ASNS expression fc,cultured human skeletal muscle,−1.454
same,ATF5 expression fc,cultured human skeletal muscle,−1.826
same,ATL3 expression fc,cultured human skeletal muscle,−1.455
same,BHLHB2 expression fc,cultured human skeletal muscle,−1.43
same,BTG2 expression fc,cultured human skeletal muscle,−1.573
same,BTN3A2 expression fc,cultured human skeletal muscle,−1.759
same,BTN3A3 expression fc,cultured human skeletal muscle,−1.62
same,C1RL expression fc,cultured human skeletal muscle,−1.627
same,C4orf18 expression fc,cultured human skeletal muscle,−1.781
same,C8orf13 expression fc,cultured human skeletal muscle,−1.412
same,C14orf4 expression fc,cultured human skeletal muscle,−1.476

# — US20140242093A1, “METHODS AND COMPOSITIONS FOR MODULATING THE INNATE IMMUNE RESPONSE AND/OR MYOGENESIS IN A MAMMALIAN SUBJECT” (FRED HUTCHINSON CANCER RESEARCH CENTER, priority 2011, published 2014)
